Values of other authors, collected in article PMC8198792, “Prediction of Anticancer Peptides with High Efficacy and Low Toxicity by Hybrid Model Based on 3D Structure of Peptides” (International Journal of Molecular Sciences, 2021).
Where two headings read alike, the source gives them in different places.

System: cancer cell lines
Design: method as in 6 sources, ref CancerPPD [45] and SATPdb ||| ref CancerPPD/SATPdb ||| ref CancerPPD, SATPdb, Swissprot (PDB) ||| ref CancerPPD/SATPdb/Swissprot(PDB) ||| ref CancerPPD / SATPdb ||| ...
Conditions: cited from earlier work
Excerpt: Supplement ijms-22-05630-s001.zip/ACPs(seguence).xlsx, sheet "D1" | column: Activity || Supplement ijms-22-05630-s001.zip/ACPs(seguence).xlsx, sheet "D2" | column: Activity || Supplement ijms-22-05630-s001.zip/ACPs(seguence).xlsx, sheet "D3" | column: Activity || (+ 2 further places)

[1] = ACPs dataset D3 (supplement sheet "D3"), 1 = ACP, 0 = non-ACP, ref CancerPPD [45] and SATPdb
[2] = ACPs dataset D4 (sheet "D4"), label 1 = ACP (CancerPPD ID), 0 = non-ACP (non-anticancer AMP, SATPdb ID), ref CancerPPD [45] and SATPdb
[3] = ACPs dataset D5 (sheet "D5"), label 1 = ACP (positive set), 0 = non-ACP (negative set), ref CancerPPD [45] and SATPdb
[4] = ACPs dataset D1, 1 = ACP (positive), 0 = non-ACP (negative), label taken from databases, ref CancerPPD [45] and SATPdb
[5] = ACPs dataset D4 (sheet "D4"), label 1 = ACP, experimentally validated ACPs, ref CancerPPD [45] and SATPdb
[6] = ACPs dataset D5 (sheet "D5"), label 1 = ACP (positive set), sequences with CancerPPD/SATPdb ID, ref CancerPPD, SATPdb
[7] = ACPs dataset sheet D2, 1 = ACP (CancerPPD/SATPdb ID), 0 = non-ACP (Swissprot/PDB ID), ref CancerPPD, SATPdb, Swissprot (PDB)
[8] = ACPs dataset D1, label 1 = ACP, 0 = non-ACP (non-anticancer AMPs from SATPdb), ref CancerPPD/SATPdb
[9] = ACPs dataset D3 (sheet "D3"), label 1 = ACP, 0 = non-ACP, ref CancerPPD/SATPdb
[10] = ACPs dataset D4 (sheet "D4"), label 1 = ACP, 0 = non-ACP, ref CancerPPD / SATPdb
[11] = ACPs dataset D5, sheet "D5", label 1 = ACP, 0 = non-ACP, ref CancerPPD [45] and SATPdb
[12] = ACPs dataset D2 (supplement ACPs(seguence).xlsx, sheet D2), dataset label 1/0 (ACP / non-ACP), entries identified by Swissprot(PDB ID), ref CancerPPD/SATPdb/Swissprot(PDB)

| Substance | Activity [2] | Activity [4] | Activity [5] | Activity [6] | Activity [7] | further results |
| --- | --- | --- | --- | --- | --- | --- |
| GLFDIAKKVIGVIGSL [compound 1270] | 1 |  |  |  |  | Activity [1]: 1; Activity [3]: 1 |
| FLKLLKKLAAKLF [compound 1005] |  | 1 | 1 | 1 | 1 |  |
| VLSIVACSSGCGSGKTAASCVETCGNRCFTNVGSLC [satpdb10613] | 0 | 0 |  |  |  |  |
| GKWSKILGKLIR [compound 3644] | 1 |  |  |  |  | Activity [1]: 1; Activity [3]: 1 |
| PKLlKTFlSKWIG [satpdb12561] | 0 |  |  |  |  | Activity [8]: 0 |
| GLFKVIKKVASVIGGL [compound 4147] | 1 |  |  |  |  | Activity [1]: 1; Activity [3]: 1 |
| KWKLFKKIPLHLAKKF [compound 1139] | 1 |  |  |  |  | Activity [1]: 1; Activity [3]: 1 |
| ITPATPFTPAIITEITAAVIA [satpdb10693] | 0 | 0 |  |  |  |  |
| KKLLKWLKKLL [satpdb14598] |  |  |  |  |  | Activity [9]: 0; Activity [10]: 0; Activity [11]: 0 |
| GVFGLLAKAALKGASKLIPHLLPSRQQ [satpdb12176] | 0 |  |  |  |  | Activity [8]: 0 |
| ARLKKCFNKVTGYCRKKCKVGERYEIGCLSGKLCCAN [satpdb10509] | 0 | 0 |  |  |  |  |
| MAELQERIRHFWKESRRAFLVTKKPNWATYKRAAKITGLGIILIGLIGMLIRIVGILILGG [3MP7 X-ray 2.90 B 1-61] |  |  |  |  |  | Activity [12]: 0; Activity [11]: 0 |
| SVSNAATRVARTGRSRWRDVARNFMR [satpdb11117] | 0 | 0 |  |  |  |  |
| ASSGWVCTLTIECGTVICACR [satpdb11450] | 0 |  |  |  |  | Activity [8]: 0 |
| ALWKTLLKKVLKA [satpdb12593] |  |  |  |  |  | Activity [10]: 0; Activity [11]: 0 |
| GILNTIKSIASKLKRKAK [satpdb10259] | 0 | 0 |  |  |  |  |
| VGSGGCMFGNGK [satpdb10083] |  | 1 | 1 | 1 | 1 |  |
| ILRWPWWPWRRK [compound 1880] | 1 |  |  |  |  | Activity [1]: 1; Activity [3]: 1 |
| GIIKKIIKKIIKKI [compound 2840] | 1 |  |  |  |  | Activity [1]: 1; Activity [3]: 1 |
| FLKWLFKWAKK [compound 1716] |  |  | 1 | 1 |  | Activity [1]: 1 |
| SPWSPCSGNCSTGKQQRTR [satpdb11308] |  | 1 | 1 | 1 | 1 |  |

| Substance | Activity [2] | Activity [4] | Activity [5] | Activity [6] | Activity [7] | further results |
| --- | --- | --- | --- | --- | --- | --- |
| HTHQDFQPVLHLVALNTPLSGGMRGIR [satpdb17795] |  | 1 | 1 | 1 | 1 |  |
| SNASVWECCSTGSWVPFTCC [satpdb10213] | 0 | 0 |  |  |  |  |
| LNWGAVLKHVVK [satpdb11336] |  |  |  |  |  | Activity [1]: 0; Activity [10]: 0; Activity [11]: 0 |
| GMWSKILGHLIK [compound 3636] | 1 |  |  |  |  | Activity [1]: 1; Activity [3]: 1 |
| EIPSCESSASPDQSDSSVPPEE [satpdb17950] |  | 1 | 1 | 1 | 1 |  |
| LRVRLASHLRKLRKRLLRDADDLQKRLAVY [compound 1665] |  | 1 | 1 | 1 | 1 |  |
| MATAVYRCAKCGKEVELDLATAREVRCPYCGSKILYKPRPRVARRVKAI [4QIW X-ray 3.50 P/W 1-49] |  |  |  |  |  | Activity [12]: 0; Activity [3]: 0 |
| AIGKFLHSAKKFGKAFVGEIMNS [compound 1041] |  |  | 1 | 1 |  | Activity [1]: 1 |
| FLSLIPHAIN AVSAIAKHN [2JQ0 NMR - A 1-19] |  |  |  |  | 0 | Activity [3]: 0 |
| SPWSQCTASCGGGVQTR [satpdb21725] |  | 1 | 1 | 1 | 1 |  |
| GFSPNLPGKGLRIS [satpdb13263] |  |  |  |  |  | Activity [8]: 0; Activity [10]: 0 |
| IDWKKLLDAAKQIL [compound 4438] |  | 1 | 1 | 1 | 1 |  |
| GLLDIVKKVVGAFGSL [compound 4414] |  | 1 | 1 | 1 | 1 |  |
| FLPVIAGVAANFLPKLFCAISKKC [compound 4361] |  | 1 | 1 | 1 | 1 |  |
| SPPNQPSIMTFDYAKTNK [satpdb13153] |  |  |  |  |  | Activity [8]: 0; Activity [10]: 0 |
| KWKSFLKTFKSLKkTVLHTLLkAISS [compound 3766] | 1 |  |  |  |  | Activity [1]: 1; Activity [3]: 1 |
| CKGRGKRCREKQRPSDKPRR [satpdb11644] |  | 1 | 1 | 1 | 1 |  |
| GVFTLIKGATQLIGKTLGKELGKTGLEIMACKITKQC [satpdb12576] | 0 |  |  |  |  | Activity [8]: 0 |
| GLLKRIKTLL [2MJQ NMR - A 1-10] |  |  |  |  | 0 | Activity [3]: 0 |
| GDVIDTDRDIDR [satpdb14246] |  | 1 | 1 | 1 | 1 |  |
| DKLIGSCVWGAVNYTSNCNAECKRRGYKGGHCGSFANVNCWCET [1OZZ NMR - A 1-44] |  |  |  |  |  | Activity [12]: 0; Activity [3]: 0 |

| Substance | Activity [2] | Activity [4] | Activity [5] | Activity [6] | Activity [7] | further results |
| --- | --- | --- | --- | --- | --- | --- |
| KSVRGKGKGQKRKRKKSRYK [satpdb21584] |  | 1 | 1 | 1 | 1 |  |
| SLIPHAINAVSAIAKHF [satpdb12892] |  |  |  |  |  | Activity [9]: 0; Activity [10]: 0; Activity [11]: 0 |
| GIIKKIIKKI [compound 2839] | 1 |  |  |  |  | Activity [1]: 1; Activity [3]: 1 |
| MPTWAWWLFLVLLLALWAPARG [satpdb27488] |  | 1 | 1 | 1 | 1 |  |
| HHPHGHHPHGHHPHGHHPHG [compound 4189] |  | 1 | 1 | 1 | 1 |  |
| FHVPDDRPCINPGRCPLVPDATCTFVCKAADNDFGYECQHVWTFEGQRVGCYA [5MRV X-ray 1.85,C,1-53] |  |  |  |  |  | Activity [12]: 0; Activity [11]: 0 |
| QRACPRILKKCRRDSDCPGECICKENGYCG [2LJS NMR - A 1-30] |  |  |  |  | 0 | Activity [3]: 0 |
| HFLLTLVNLAKkIL [satpdb14808] |  |  |  |  |  | Activity [9]: 0; Activity [10]: 0; Activity [11]: 0 |
| SVLGTVKDLLIGAGKSAAQSVLTANSCKLSNSC [satpdb10581] | 0 | 0 |  |  |  |  |
| GFLDTFKNLALNAAKSAGVSVLNSLSCKLFKTC [satpdb12796] |  |  |  |  |  | Activity [8]: 0; Activity [10]: 0 |
| GPSQPTYPGDDAPVEDLIRFYNDLQQYLNVVTRHRY [1PPT X-ray 1.37 A 1-36] |  |  |  |  |  | Activity [12]: 0; Activity [3]: 0 |
| GASCGETCFTGICFTAGCSCNPWPTCTRN [compound 4369] |  | 1 | 1 | 1 | 1 |  |
| FVDLKKIANIINSIF [compound 2851] | 1 |  |  |  |  | Activity [1]: 1; Activity [3]: 1 |
| MKFYTIKLPKFLGGIVRAMLGSFRKD [2MVH NMR - A 1-26] |  |  |  |  | 0 | Activity [3]: 0 |
| KWKSFIKKLTDKFLHSAKKF [satpdb12512] |  |  |  |  |  | Activity [9]: 0; Activity [10]: 0; Activity [11]: 0 |
| LGQSAASAHHAYIVLAIENSFMTASKKK [compound 4207] |  | 1 | 1 | 1 | 1 |  |
| KMWSKILGHLIR [compound 3511] | 1 |  |  |  |  | Activity [1]: 1; Activity [3]: 1 |
| KLALKLALKAlkAALKLA [satpdb10294] | 0 | 0 |  |  |  |  |
| PAWRKARRWARRMKKLAA [compound 1618] |  | 1 | 1 | 1 | 1 |  |
| GLASFLGKALKAGLKIGSHLLGGAPQQ [satpdb10480] | 0 | 0 |  |  |  |  |
